Results from PMC6722883 (FEBS Open Bio, 2019).

Assay: physchem
Conditions: buffer or solvent, pH 7.2

CC[C@H](C)[C@@H]1NC(=O)[C@@H]2CCCN2C(=O)[C@H](CO)NC(=O)[C@H](CCSC)NC(=O)[C@H](C)NC(=O)[C@H](CO)NC(=O)[C@@H]2CSSC[C@H](NC(=O)CN)C(=O)N[C@@H](CSSC[C@@H](C(N)=O)NC1=O)C(=O)N[C@@H](CO)C(=O)N[C@@H](Cc1cnc[nH]1)C(=O)N1CCC[C@H]1C(=O)N[C@@H](C(C)C)C(=O)N2 [TxID, α‐Conotoxin TxID]
remaining at 4 h: ~50%
